Assay results reported in US12036226B2, “Methods of treating subjects having diabetes with chronic kidney disease” (Poxel SA, priority 2018, dated 2024).
Values joined by “and” are separate entries in the source; they are usually repeats but may differ in a detail not shown here. Identical values can stand only once. Like-named read-outs stand apart in the source and are kept apart here.

Assay: Phase 1 study of pharmacokinetics and safety of imeglimin in subjects with renal impairment compared to normal renal function
Format: in vivo, human
Settings: for AUC: read-out: AUC0-τ
Experimental: An open-label, parallel-group, multi-center, multiple oral dose study to investigate the pharmacokinetics of imeglimin in subjects with renal impairment compared to subjects with normal renal function was completed.
In this study, a total of 51 subjects received imeglimin at the daily dose of 1000 mg, administered either as 1000 mg QD (once a day) or 500 mg bid (twice a day) during 8 days. […] Twenty-four control subjects with normal renal function were matched to mild and moderate (10 receiving QD and 8 receiving bid regimen) and to severe (6 receiving bid regimen) renal impaired subjects. Measurement of the urine to plasma ratio of creatinine using 24 hours urine sampling was calculated (CLCrea).
Imeglimin was administered in the morning time during 8 consecutive days in the group of subjects receiving 1000 mg once a day and in the morning and evening time during 7 consecutive days followed by a morning administration of 500 mg in the morning time on Day 8 in the group of subjects receiving 500 mg twice a day. Morning administrations on Days 1 and 8 were performed on a fasted state, after a 10 hours overnight fasting and during 4 hours after imeglimin administration.
Inclusion Criteria: For subjects with normal renal functions: CLCrea>80 mL/min based on calculation using 24-hrs sampling on day −2. For subjects with impaired renal function: CLCrea 50 to 80 mL/min for subjects with mild renal impairment, 30 to <50 mL/min for subjects with moderate renal impairment, and <30 mL/min for subjects with severe renal impairment based on calculation using 24-hrs sampling on day −2.
Pharmacokinetic parameters included apparent volume of distribution during the terminal phase following extravascular administration (Vz/F), area under the curve of the plasma concentration as a function of time (AUC0-t), the maximum observed concentration (Cmax), the time to maximum concentration (tmax), the plasma half-life (t1/2), the total body clearance of drug from plasma following extravascular administration (CL/F), and other parameters.
The urinary excretion parameters of imeglimin in subjects with differing degrees of renal impairment following QD or bid oral doses of imeglimin on day 8 are summarized in Table 3 and Table 4. Parameters measured include amount of unchanged drug excreted in urine as a function of time (Ae0-t), renal clearance (CLR), and the amount of unchanged drug excreted in urine during one dosing interval (Ae0-τ), and the percentage of administered dose excreted in urine during one dosing interval (fe0-τ).
For the evaluation of safety and tolerability of multiple oral doses of 1000 mg imeglimin QD (i.e. a total dose of 8000 mg imeglimin) or 500 mg imeglimin BID (i.e. a total dose of 7500 mg imeglimin), laboratory tests (hematology, clinical chemistry, urinalysis), determination of vital signs, ECG recordings, questioning of AEs and physical examinations were performed. […] The incidence of AEs observed within the course of the study was low. Overall 31 out of 51 subjects reported 54 treatment emergent AEs. Of these, only 15 were judged as likely related to the study drug. The majority (39 AEs) were assessed as unlikely related. Based on these low incidence no clear differences between the dose regimens and between the renal impairment groups can be shown.

[1] = 500 mg bid oral, Day 8, CKD Stage 2 (mild renal impairment) (N = 4), geometric mean (CV %)
[2] = 500 mg bid oral, Day 8, CKD Stage 3 (moderate renal impairment) (N = 6), geometric mean (CV %)
[3] = 500 mg bid oral, Day 8, CKD Stage 4 (severe renal impairment) (N = 5), geometric mean (CV %)
[4] = 500 mg bid oral, Day 8, Part 1 CKD Stage 2 (mild renal impairment; N = 4), geometric mean
[5] = 500 mg bid oral, Day 8, Part 1 CKD Stage 3 (moderate renal impairment; N = 6), geometric mean
[6] = 500 mg bid oral, Day 8, Part 1 normal renal function (N = 8), geometric mean
[7] = 500 mg bid oral, Day 8, Part 2 CKD Stage 4 (severe renal impairment; N = 5), geometric mean
[8] = 500 mg bid oral, Day 8, Part 2 normal renal function (N = 6), geometric mean
[9] = 500 mg bid oral, Day 8, normal renal function (N = 6), geometric mean (CV %)
[10] = 500 mg bid oral, Day 8, normal renal function (N = 8), geometric mean (CV %)
[11] = 1000 mg QD or 500 mg bid over 8 days, all groups
[12] = 1000 mg QD oral, Day 8, CKD Stage 3 (moderate renal impairment) (N = 6), geometric mean
[13] = 1000 mg QD oral, Day 8, CKD stage 2 (mild renal impairment; N = 5), geometric mean
[14] = 1000 mg QD oral, Day 8, normal renal function (N = 10), geometric mean
[15] = human, plasma, po, 500 mg, 500 mg bid oral, Day 8, Part 1 CKD Stage 2 (mild renal impairment; N = 4), geometric mean
[16] = human, plasma, po, 500 mg, 500 mg bid oral, Day 8, Part 1 CKD Stage 3 (moderate renal impairment; N = 6), geometric mean

With `C[C@H]1N=C(N(C)C)N=C(N)N1` [imeglimin, (6R)—N^2, N^2,6-trimethyl-3,6-dihydro-1,3,5-triazine-2,4-diamine] the Ae0-t [1] was 404 (16.4) mg, the Ae0-τ [1] was 215 (11.5) mg and the “feτ (fraction of dose excreted in urine, 12-hour dosing interval)” value [1] was 43% and 42.9 (11.5) %. The Ae0-t [2] was 328 (22.6) mg, the Ae0-τ [2] was 199 (29.1) mg and the “feτ (fraction of dose excreted in urine, 12-hour dosing interval)” value [2] was 40% and 39.8 (29.1) %. The Ae0-t [3] was 357 (25.5) mg, the Ae0-τ [3] was 209 (15.6) mg and the “feτ (fraction of dose excreted in urine, 12-hour dosing interval)” value [3] was 42% and 41.8 (15.6) %. The CL/F [4] was 754 mL/min, the Cpre [4] was 572 ng/mL and the CL/F [5] was 485 mL/min. The Cmin [5] was 808 ng/mL, the Cpre [5] was 996 ng/mL and the CL/F [6] was 1128 mL/min. It also gave a Cpre [6] of 254 ng/mL, a CL/F [7] of 336 mL/min and a Cmin [7] of 1211 ng/mL. It also gave a Cpre [7] of 1335 ng/mL, a CL/F [8] of 1195 mL/min and a Cmin [8] of 169 ng/mL. The Cpre [8] was 209 ng/mL, the Ae0-t [9] was 298 (30.6) mg and the Ae0-τ [9] was 229 (25.3) mg. The “feτ (fraction of dose excreted in urine, 12-hour dosing interval)” value [9] was 45.9 (25.3) %, the Ae0-t [10] was 307 (37.7) mg and the Ae0-τ [10] was 222 (22.6) mg. The “feτ (fraction of dose excreted in urine, 12-hour dosing interval)” value [10] was 44.4 (22.6) %, the “number of treatment emergent AEs” value [11] was 54 and the “subjects reporting treatment emergent AEs” value [11] was 31 out of 51 subjects. The “Ae0-t (unchanged drug excreted in urine)” value [12] was 453 mg, the Ae0-τ [12] was 345 mg and the CL/F [12] was 573 mL/min. The Cpre [12] was 382 ng/mL, the “feτ (percentage of dose excreted in urine during one dosing interval)” value [12] was 34.5% and the CL/F [13] was 828 mL/min. The Cpre [13] was 181 ng/mL, the “Ae0-t (unchanged drug excreted in urine)” value [14] was 460 mg and the Ae0-τ [14] was 386 mg. It also gave a CL/F [14] of 1082 mL/min, a Cav [14] of 642 ng/mL and a Cpre [14] of 136 ng/mL. For the same compound, the “feτ (percentage of dose excreted in urine during one dosing interval)” value [14] was 38.6%, the “QRS-, QT intervals and corrected QTc-intervals (Bazett, Fridericia)” value (ECG recordings) was “did not reveal any relevant changes” and the vital signs (following the administration of imeglimin) was “did not show any clinically relevant changes”. For the same compound, the clinical laboratory parameters (human, in vivo) was “no significant abnormality observed”, the half-life (human, plasma, oral, across groups) was 13 to 26 h and the Tmax (human, plasma, oral, post-dose, across renal function groups and time, read-out: Median Tmax) was 3.5 to 5 h. It also gave a Cmax [15] of 1320 ng/mL, a half-life [15] of 26.1 h and an AUC [15] of 11100 ng·h/mL. For the same compound, the concentration at 8 day (human, plasma, po, 500 mg, 500 mg bid oral, Day 8, Part 1 CKD Stage 2 (mild renal impairment; N = 4), geometric mean, read-out: Cav) was 921 ng/mL, the concentration at 8 day (human, plasma, po, 500 mg, 500 mg bid oral, Day 8, Part 1 CKD Stage 2 (mild renal impairment; N = 4), geometric mean, read-out: Cmin) was 459 ng/mL and the Vd/F (human, plasma, po, 500 mg, 500 mg bid oral, Day 8, Part 1 CKD Stage 2 (mild renal impairment; N = 4), geometric mean, read-out: Vz/F) was 1700 L. The Tmax (human, plasma, po, 500 mg, 500 mg bid oral, Day 8, Part 1 CKD Stage 2 (mild renal impairment; N = 4), median, read-out: tmax) was 4 h, the Cmax [16] was 2000 ng/mL and the half-life [16] was 21.9 h. The AUC [16] was 17200 ng·h/mL.
